US12534457B2, “Heteroaryl derivative compounds, and uses thereof” (Voronoi Inc., priority 2021, dated 2026)

tested on: Ba/F3 cells expressing EGFR Del19/C797S (EGFR DC); experiment: Proliferation inhibitory activity, Ba/F3 cells expressing EGFR Del19/C797S (CellTiter-Glo); type: cell-based; settings: Mus musculus, BaF3, 72 hours of compound treatment
Method: The following experiments were performed to evaluate the inhibitory activity of the compounds according to the present disclosure on Ba/F3 proliferation expressing EGFR C797S, L861Q, G719A, S768I, L718Q, and/or G724S mutations.
For Ba/F3 cells, RPMI-1640 containing 10% FBS and 5 ng/ml IL-3 (R&D Systems) was used. Transduced Ba/F3 cells were cultured after adding 1 μg/ml puromycin (Invitrogen) to the same medium.
At 24 hours before treatment with the compounds, 3000 to 5000 cells were aliquoted into each well of a white clear bottom 96 well plate (Corning). The compounds were diluted in dimethyl sulfoxide (3 times dilution, 12 concentrations in total), and injected in an amount of 1 μl so that the final concentration was 0.2 nM to 5 uM. For measurement of living cells, after 72 hours of compound treatment, the cells were stored at room temperature for 10 min using CellTiter-Glo luminescentcell-viability reagent (Promega), and then luminescence intensity was measured using a reader (SynergyNeo, Biotek). Each test was repeated three times. Result values were calculated as the cell growth rate (%) compared to the control. The graphs were created using GraphPad Prism version 8.3.0 program and the GI50 values were calculated.

| SMILES | GI50 |
| --- | --- |
| COc1cc(N2CCC(N3CCC(N4CCN(C5CC5)CC4)CC3)CC2)ccc1Nc1cc(N2OCC[C@@H]2c2ccccc2)ncn1 [Example 63, (R)—N-(4-(4-(4-cyclopropylpiperazin-1-yl)-[1,4′-bipiperidin]-1′-yl)-2-methoxyphenyl)-6-(3-phenylisoxazolidin-2-yl)pyrimidin-4-amine] | < 50 nM |
| COc1cc(N2CCC(N3CCOCC3)CC2)ccc1Nc1cc(N2OCC[C@@H]2c2ccccc2)ncn1 [Example 120, (R)—N-(2-methoxy-4-(4-morpholinopiperidin-1-yl)phenyl)-6-(3-phenylisoxazolidin-2-yl)pyrimidin-4-amine] | < 50 nM |
| C[C@@H](Oc1cc(N2CCC(N3CCN(C)CC3)CC2)ccc1Nc1cc(N2OCC[C@@H]2c2ccccc2)ncn1)C(F)(F)F [Example 56, N-(4-(4-(4-methylpiperazin-1-yl)piperidin-1-yl)-2-(((R)-1,1,1-trifluoropropan-2-yl)oxy)phenyl)-6-((R)-3-phenylisoxazolidin-2-yl)pyrimidin-4-amine] | < 50 nM |
| COc1cc(N2CC(N3CCN(C)CC3)C2)ccc1Nc1cc(N2OCC[C@@H]2c2cccc(F)c2F)ncn1 [Example 218, (R)-6-(3-(2,3-difluorophenyl)isoxazolidin-2-yl)-N-(2-methoxy-4-(3-(4-methylpiperazin-1-yl)azetidin-1-yl)phenyl)pyrimidin-4-amine] | < 50 nM |
| C=CCN1CCN(c2ccc(Nc3cc(N4OCC[C@@H]4c4ccccc4)ncn3)cc2)CC1 [Example 68, (R)—N-(4-(4-allylpiperazin-1-yl)phenyl)-6-(3-phenylisoxazolidin-2-yl)pyrimidin-4-amine] | < 50 nM |
| COc1cc(C2CCN(C)CC2)ccc1Nc1cc(N2OCC[C@@H]2c2cccc(F)c2F)ncn1 [Example 141, (R)-6-(3-(2,3-difluorophenyl)isoxazolidin-2-yl)-N-(2-methoxy-4-(1-methylpiperidin-4-yl)phenyl)pyrimidin-4-amine] | < 50 nM |
| CN1CCN(C(=O)c2ccc(Nc3cc(N4OCC[C@@H]4c4ccccc4)ncn3)cc2)CC1 [Example 72, (R)-(4-methylpiperazin-1-yl) (4-((6-(3-phenylisoxazolidin-2-yl)pyrimidin-4-yl)amino)phenyl)methanone] | 50 to 500 nM |
| COc1cc(N2CCC(N3CCN(C)CC3)C(F)C2)ccc1Nc1cc(N2OCC[C@@H]2c2cccc(F)c2F)ncn1 (stereo partly drawn) [Example 140, 6-((R)-3-(2,3-difluorophenyl)isoxazolidin-2-yl)-N-(4-(3-fluoro-4-(4-methylpiperazin-1-yl)piperidin-1-yl)-2-methoxyphenyl)pyrimidin-4-amine] | < 50 nM |
| COc1cc(NC2CCN(C)CC2)ccc1Nc1cc(N2OCC[C@@H]2c2ccccc2)ncn1 [Example 113, (R)-2-methoxy-N4-(1-methylpiperidin-4-yl)-N1-(6-(3-phenylisoxazolidin-2-yl)pyrimidin-4-yl)benzene-1,4-diamine] | < 50 nM |
| COc1cc(N2CCC(N3CCCC3)CC2)ccc1Nc1cc(N2OCC[C@@H]2c2ccccc2)ncn1 [Example 62, (R)—N-(2-methoxy-4-(4-(pyrrolidin-1-yl)piperidin-1-yl)phenyl)-6-(3-phenylisoxazolidin-2-yl)pyrimidin-4-amine] | < 50 nM |
| COc1cccc([C@H]2CCON2c2cc(Nc3ccc(N4CCC(N5CCN(C)CC5)CC4)cc3OC)ncn2)c1 [Example 41, (R)—N-(2-methoxy-4-(4-(4-methylpiperazin-1-yl)piperidin-1-yl)phenyl)-6-(3-(3-methoxyphenyl)isoxazolidin-2-yl)pyrimidin-4-amine] | 50 to 500 nM |
| Cc1cc(Nc2cc(N3OCC[C@@H]3c3cccc(F)c3F)ncn2)ccc1N1CCC(N2CCN(C)CC2)CC1 [Example 126, (R)-6-(3-(2,3-difluorophenyl)isoxazolidin-2-yl)-N-(3-methyl-4-(4-(4-methylpiperazin-1-yl)piperidin-1-yl)phenyl)pyrimidin-4-amine] | < 50 nM |
| COc1cc(N2CCC(N(C)C)CC2)ccc1Nc1cc(N2OCC[C@@H]2c2ccccc2)ncn1 [Example 119, (R)—N-(4-(4-(dimethylamino)piperidin-1-yl)-2-methoxyphenyl)-6-(3-phenylisoxazolidin-2-yl)pyrimidin-4-amine] | < 50 nM |
| COc1cc(N2CCC(N3CCN(C)CC3)CC2)ccc1Nc1ncnc(N2OCC[C@@H]2c2ccccc2)n1 [Example 112, (R)—N-(2-methoxy-4-(4-(4-methylpiperazin-1-yl)piperidin-1-yl)phenyl)-4-(3-phenylisoxazolidin-2-yl)-1,3,5-triazin-2-amine] | 50 to 500 nM |
| c1ccc([C@H]2CCON2c2cc(Nc3ccc4c(c3)CCNC4)ncn2)cc1 [Example 78, (R)—N-(6-(3-phenylisoxazolidin-2-yl)pyrimidin-4-yl)-1,2,3,4-tetrahydroisoquinolin-6-amine] | < 50 nM |
| COc1cc(N2CCC(N3CCN4CCCC4C3)CC2)c(NC(=O)CCCl)cc1Nc1cc(N2OCC[C@@H]2c2cc(F)cc(F)c2)ncn1 (stereo partly drawn) [Example 86, 3-chloro-N-(5-((6-((R)-3-(3,5-difluorophenyl)isoxazolidin-2-yl)pyrimidin-4-yl)amino)-2-(4-(hexahydropyrrolo[1,2-a]pyrazin-2 (1H)-yl)piperidin-1-yl)-4-methoxyphenyl)propanamide] | < 50 nM |
| COc1cc(N2CCC(N3CCN(C)CC3)CC2)ccc1Nc1cc(N2OCC[C@@H]2c2ccc(F)c(F)c2)ncn1 [Example 90, (R)-6-(3-(3,4-difluorophenyl)isoxazolidin-2-yl)-N-(2-methoxy-4-(4-(4-methylpiperazin-1-yl)piperidin-1-yl)phenyl)pyrimidin-4-amine] | < 50 nM |
| Cn1nccc1-c1ccc(Nc2cc(N3OCC[C@@H]3c3ccccc3)ncn2)c2c1OCCO2 [Example 80, (R)—N-(8-(1-methyl-1H-pyrazol-5-yl)-2,3-dihydrobenzo[b][1,4]dioxin-5-yl)-6-(3-phenylisoxazolidin-2-yl)pyrimidin-4-amine] | 50 to 500 nM |
| COc1cc2c(cc1Nc1cc(N3OCC[C@@H]3c3cc(F)cc(F)c3)ncn1)N(C(=O)C(F)(F)F)CC21CCN(C)CC1 [Example 152, (R)-1-(6-((6-(3-(3,5-difluorophenyl)isoxazolidin-2-yl)pyrimidin-4-yl)amino)-5-methoxy-1′-methylspiro[indolin-3,4′-piperidin]-1-yl)-2,2,2-trifluoroethan-1-one] | < 50 nM |
| COc1cc(N2CCC(N3CCN(C)CC3)CC2)ccc1Nc1cc(N2OCC[C@@H]2c2cc(F)cc(C#N)c2)ncn1 [Example 170, (R)-3-fluoro-5-(2-(6-((2-methoxy-4-(4-(4-methylpiperazin-1-yl)piperidin-1-yl)phenyl)amino)pyrimidin-4-yl)isoxazolidin-3-yl)benzonitrile] | 50 to 500 nM |
| COc1cc(N2CCC(N3CCN(CCS(C)(=O)=O)CC3)CC2)ccc1Nc1cc(N2OCC[C@@H]2c2cccc(F)c2F)ncn1 [Example 237, (R)-6-(3-(2,3-difluorophenyl)isoxazolidin-2-yl)-N-(2-methoxy-4-(4-(4-(2-(methylsulfonyl)ethyl)piperazin-1-yl)piperidin-1-yl)phenyl)pyrimidin-4-amine] | < 50 nM |
| COc1cc(Nc2cc(N3OCC[C@@H]3c3ccc(F)cc3)ncn2)ccc1N1CCC(N2CCN(C)CC2)CC1 [Example 96, (R)-6-(3-(4-fluorophenyl)isoxazolidin-2-yl)-N-(3-methoxy-4-(4-(4-methylpiperazin-1-yl)piperidin-1-yl)phenyl)pyrimidin-4-amine] | < 50 nM |
| COc1cc(N2CCC(N3CCN(C)CC3)CC2)c(C)cc1Nc1cc(N2OCC[C@@H]2c2cc(F)cc(F)c2)ncn1 [Example 20, (R)-6-(3-(3,5-difluorophenyl)isoxazolidin-2-yl)-N-(2-methoxy-5-methyl-4-(4-(4-methylpiperazin-1-yl)piperidin-1-yl)phenyl)pyrimidin-4-amine] | < 50 nM |
| COc1cc(Nc2cc(N3OCC[C@@H]3c3cc(F)ccc3F)ncn2)ccc1N1CCC(N2CCN(C)CC2)CC1 [Example 106, (R)-6-(3-(2,5-difluorophenyl)isoxazolidin-2-yl)-N-(3-methoxy-4-(4-(4-methylpiperazin-1-yl)piperidin-1-yl)phenyl)pyrimidin-4-amine] | < 50 nM |
| CN1CCN(c2ccc(Nc3cc(N4OCC[C@@H]4c4ccccc4)ncn3)cc2OCC(F)(F)F)CC1 [Example 139, (R)—N-(4-(4-methylpiperazin-1-yl)-3-(2,2,2-trifluoroethoxy)phenyl)-6-(3-phenylisoxazolidin-2-yl)pyrimidin-4-amine] | < 50 nM |
| Cn1cc(-c2cc(Nc3cc(N4OCC[C@@H]4c4ccccc4)ncn3)c(OCC(F)(F)F)cc2N2CCOCC2)cn1 [Example 167, (R)—N-(5-(1-methyl-1H-pyrazol-4-yl)-4-morpholino-2-(2,2,2-trifluoroethoxy)phenyl)-6-(3-phenylisoxazolidin-2-yl)pyrimidin-4-amine] | < 50 nM |
| COc1cc(N2CCC(N3CCN(C)CC3)CC2)ccc1Nc1cc(N2OCC3(CC3)[C@@H]2c2ccccc2)ncn1 [Example 233, (S)—N-(2-methoxy-4-(4-(4-methylpiperazin-1-yl)piperidin-1-yl)phenyl)-6-(7-phenyl-5-oxa-6-azaspiro[2.4]heptan-6-yl)pyrimidin-4-amine] | < 50 nM |
| CN1CCC(c2ccc(Nc3cc(N4OCC[C@@H]4c4cc(F)cc(F)c4)ncn3)c3c2CCO3)CC1 [Example 155, (R)-6-(3-(3,5-difluorophenyl)isoxazolidin-2-yl)-N-(4-(1-methylpiperidin-4-yl)-2,3-dihydrobenzofuran-7-yl)pyrimidin-4-amine] | < 50 nM |
